Assay results taken from patent publication US20060135625A1, “Method of administering split doses of a vascular targeting agent” (priority 2002, published 2006).

How the values were obtained:
[1] = test system: murine adenocarcinoma NT (CaNT) tumor; test: in vitro clonogenic (colony-forming) assay of tumor cells isolated from treated CaNT tumor-bearing animals; format: in vivo, mice
Procedure: (§1) 1) Transplanted tumor model. A murine adenocarcinoma NT (“CaNT”) tumor was transplanted from a syngeneic donor and implanted subcutaneously onto the rear dorsum of 10-16 week old female CBA/Gy f TO mice, by injecting 0.05 ml of a crude cell suspension prepared by mechanical dissociation of the excised. Tumors were selected for treatment with the VTA CA4DP when the geometric mean diameter (“GMD”) reached 5-6.5 mm (150-300 mg), approximately 3-4 weeks after implantation.
(§2) In each of the following Examples 1-4, CA4DP (OXiGENE Inc, Watertown, Mass., USA) was dissolved in 0.9% saline at appropriate concentrations to allow each dose to be injected i.p. in 0.1 ml per 10 g body weight. 0.9% saline was used for control treatments.
To compare the anti-tumor effect of single and divided VTA dose scheduling, the survival of tumor cells isolated from a treated CaNT tumor-bearing animals was assessed by an in vitro clonogenic (colony-forming) assay, as described previously (Chaplin et al., Anticancer Research, 1999, 19: 189-196). Tumors were excised 18-24 h after CA4P injection. Two tumors were combined for each data point, weighed, minced with scissors and then disaggregated for 1 hour at 37° C. in an enzyme cocktail of 1 mg/ml pronase, 0.5 mg/ml DNase and 0.5 mg/ml collagenase. Following digestion, samples were passed through a 25G needle and a 35 μm filter to obtain a single cell suspension. Haemocytometer counts of trypan-blue excluding cells were made and known numbers of viable cells added to a feeder layer of heavily irradiated V79-379A Chinese hamster cells. After 7-10 days incubation, colonies were fixed, stained with methylene blue and counted. The data were calculated as surviving fraction per gram of tumor, which is a product of relative surviving fraction and relative cell yield per gram of tumor. Each experimental group was repeated at least 3 times, so that at least 6 tumors contribute to each data point.

[2] = test system: microtubule assembly in tumor endothelium; details: cited from earlier work
CaNT tumor vasculature = test: functional vascular volume (Hoechst 33342) in CaNT tumors; format: in vivo, mice; details: for reduction in perfused vascular volume: CaNT, 24 hours post-treatment
Procedure: as §1, §2
(§3) The effect of VTA dose splitting on the tumor vascular response was also investigated in both CaNT and T138 tumor types, by measuring the functional vascular volume at 24 hours following treatment with single or split doses of CA4DP. Functional vascular volume is defined as the volume of tumor tissue perfused by tumor blood vessels, and is measured using the fluorescent DNA-binding dye Hoechst 33342 (Sigma-Aldrich Company Ltd., Dorset, UK) (Smith et al, British Journal of Cancer, 1988, 57: 247-253). The dye was dissolved in 0.9% saline at 6.25 mg/ml and injected i.v. at a dose of 10 mg/kg at 24 hours post-treatment. Tumors were excised and frozen 1 minute later. Sections were cut at three levels and observed under UV illumination. Functional vessels were identified by the fluorescent outline of perivascular tissue and vascular volumes were determined using a random point scoring system based on that described by Chalkley (Chalkley, J. Natl Cancer Inst., 1943, 4: 47-53). At least 100 fields were scored at each of the three tumor levels and the results for treated tumors were expressed as a percentage of control values.

T138 tumor vasculature = test: functional vascular volume (Hoechst 33342) in T138 tumors; format: in vivo, mice; details: 24 hours post-treatment
Procedure: (§4) 2) Spontaneous T138 tumor model. The T138 tumor-bearing mice (“T138”) spontaneously developed mammary tumors between 5 and 18 months of age due to genetic predisposition.
as §2
as §3, with “The dye was dissolved in 0.9% saline at 6.25 mg/ml and injected i.v. at a dose of 10 mg/kg at 24 hours post-treatment. Tumors were excised and frozen 1 minute later. Sections were cut at three levels and observed under UV illumination.” left out

[3] = test system: murine adenocarcinoma NT (CaNT) tumor; test: tumor growth delay in CaNT tumor-bearing mice; format: in vivo
Procedure: as §1, §2
(§5) The anti-tumor effect of split dosing therapy was also assessed by an analysis of tumor growth delay in both CaNT and T138 tumor-bearing mice. For experiments involving the CaNT, dose groups comprised 5 to 6 animals, whereas for the T138, 10 to 15 animals were used. Following initial drug treatment, tumor growth was determined by measuring the diameter of each tumor in 3 orthogonal orientations two or three days each week.
The effect of repeated split VTA dosing therapy was also assessed by an analysis of tumor growth delay in both CaNT tumor-bearing mice. […] Repeated administration of total daily dose (50 mg/kg) 5 days a week for 2 weeks, produced a significant delay in tumor growth of approximately 2 days. Tumor growth delay was further improved by repeat administration of split dosing (2 doses of 25 mg/kg per day separated by a 6 hour interval), 5 days a week for 2 weeks (growth delay of approximately 5 days).

[4] = test system: spontaneous T138 mammary tumors; test: tumor growth delay in T138 tumor-bearing mice; format: in vivo
Procedure: as §4, §2, §5

[5] = human plasma; cited from earlier work
tubulin = details: U.S. Pat. No. 4,996,237; cited from earlier work

Row | SMILES | cell killing (surviving fraction of tumor cells) ([1]; two equal doses of 100 mg/kg i.p. separated by 1-6 hours, compared with a single 200 mg/kg dose, tumors excised 18-24 h after injection) | cell killing (surviving fraction of tumor cells) ([1]; two equal doses of 100 mg/kg, time interval between doses 2 to 4 hours (p<0.05)) | cell killing (surviving fraction of tumor cells) ([1]; unequal doses separated by 4 hours, compared with equal doses) | inhibition of microtubule assembly [2] | reduction in perfused vascular volume (CaNT tumor vasculature; single 50 mg/kg dose) [%] | reduction in perfused vascular volume (CaNT tumor vasculature; two 25 mg/kg doses separated by 3 hours) [%] | reducing the fraction of perfused vascular volume (CaNT tumor vasculature; two equal split doses compared with a single dose, observed in both CaNT and T138 tumor models) | reduction of perfused vascular volume (T138 tumor vasculature; T138, single dose 200 mg/kg) | amount of perfused vascular tissue, of the control value (T138 tumor vasculature; T138, two split doses of 100 mg/kg) [%] | tumor growth delay ([3]; CaNT mice, single 200 mg/kg dose i.p.) | tumor growth delay ([3]; CaNT mice, two equal doses of 100 mg/kg separated by 3 hours) | tumor growth delay ([3]; CaNT, repeated split dosing, 2 doses of 25 mg/kg per day separated by 6 hours, 5 days a week for 2 weeks) | tumor growth delay ([3]; CaNT, repeated total daily dose 50 mg/kg, 5 days a week for 2 weeks) | effect on tumor growth relative to control ([3]; CaNT, single dose 50 mg/kg) | tumor growth delay ([4]; single dose of 500 mg/kg) | tumor growth delay ([4]; two equal doses of 250 mg/kg separated by 3 hours) | solubility [5] | tubulin binding activity (tubulin)
1 | COc1ccc(/C=C\c2cc(OC)c(OC)c(OC)c2)cc1OP(=O)([O-])[O-].[Na+].[Na+] [CA4DP, Combretastatin A-4 Disodium Phosphate Prodrug] | significantly more cell killing | most pronounced | less effective than equal doses of treatment | potent inhibitor of microtubule assembly | 40 | 80 | significantly more effective than a single dose | completely ineffective | 50 | did not delay growth relative to control | approximately 3 days | approximately 5 days | approximately 2 days | only minimal effects on tumor growth | no effect on tumor growth | approximately 4 days | – | –
2 | COc1ccc(/C=C\c2cc(OC)c(OC)c(OC)c2)cc1O [CA-4, Combretastatin A-4] | – | – | – | – | – | – | – | – | – | – | – | – | – | – | – | – | insolubility | found to have tubulin binding activity
